The target of test [1] is T1, ACS4-G (Pyrococcus furiosus, UniProt E7FHP1+Q8U1W9).
T1 construct: gene PF1085
Particulars: reverse reaction; 20 mM acid, 1 mM ATP or GTP, 0.5 mM CoA, 2 mM MgCl2, pH 7.0, 80°C.

Test [2] addresses T2, ACS5-G (Pyrococcus furiosus, UniProt E7FHP1+Q8TZY7).
T2 construct: gene PF1838
As to conditions: reverse reaction; 20 mM acid, 1 mM ATP or GTP, 0.5 mM CoA, 2 mM MgCl2, pH 7.0, 80°C.

T1 sequence (Q8U1W9 1-442): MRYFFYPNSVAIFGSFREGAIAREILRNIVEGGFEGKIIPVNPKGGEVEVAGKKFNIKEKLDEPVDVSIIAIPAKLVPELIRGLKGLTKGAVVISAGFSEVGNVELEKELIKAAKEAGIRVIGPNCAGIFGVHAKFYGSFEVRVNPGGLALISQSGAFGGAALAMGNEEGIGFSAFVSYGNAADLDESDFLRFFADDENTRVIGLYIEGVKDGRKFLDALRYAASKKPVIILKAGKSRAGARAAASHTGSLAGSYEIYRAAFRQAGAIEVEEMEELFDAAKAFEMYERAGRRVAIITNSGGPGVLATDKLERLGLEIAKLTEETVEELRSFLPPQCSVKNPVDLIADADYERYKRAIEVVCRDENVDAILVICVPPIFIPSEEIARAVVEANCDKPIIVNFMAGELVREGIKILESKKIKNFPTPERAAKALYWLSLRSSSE
T1 sequence (E7FHP1 whole entry): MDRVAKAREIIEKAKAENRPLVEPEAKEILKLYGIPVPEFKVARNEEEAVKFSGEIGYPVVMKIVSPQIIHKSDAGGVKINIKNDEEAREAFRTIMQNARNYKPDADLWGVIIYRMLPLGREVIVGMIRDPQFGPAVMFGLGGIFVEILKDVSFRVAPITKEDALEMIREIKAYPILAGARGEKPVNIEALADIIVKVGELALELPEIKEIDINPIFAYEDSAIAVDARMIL
T2 sequence (Q8TZY7 1-473): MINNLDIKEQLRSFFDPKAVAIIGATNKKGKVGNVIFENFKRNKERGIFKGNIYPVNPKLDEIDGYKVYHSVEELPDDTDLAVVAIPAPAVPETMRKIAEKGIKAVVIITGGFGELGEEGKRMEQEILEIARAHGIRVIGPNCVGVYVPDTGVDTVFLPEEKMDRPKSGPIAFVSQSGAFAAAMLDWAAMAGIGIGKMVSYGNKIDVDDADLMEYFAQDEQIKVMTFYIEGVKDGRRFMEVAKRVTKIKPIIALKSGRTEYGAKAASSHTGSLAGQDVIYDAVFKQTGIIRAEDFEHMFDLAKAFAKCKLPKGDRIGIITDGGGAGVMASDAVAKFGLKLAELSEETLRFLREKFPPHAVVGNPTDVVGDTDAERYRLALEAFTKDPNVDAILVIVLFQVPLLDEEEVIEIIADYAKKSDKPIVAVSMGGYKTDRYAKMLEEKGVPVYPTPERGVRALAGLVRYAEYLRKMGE
T2 sequence (E7FHP1 whole entry): as the sequence (E7FHP1 whole entry) above

On to `O=C(O)Cc1c[nH]cn1` [imidazole 4-acetate], for which the relative activity entry in test [1] was “ACS4 was the only isoenzyme that shows significant activity with imidazole 4-acetate”.

With `C[C@H](O)C(=O)O` [lactate], in test [2], the relative activity result is “ACS5 is the only enzyme that has significant activity with lactate”.

(Values after article PMC3942289, “Characterization of Ten Heterotetrameric NDP-Dependent Acyl-CoA Synthetases of the Hyperthermophilic Archaeon Pyrococcus furiosus” (Archaea, 2014).)
